Experiments:
EP4 receptor = EP4 receptor (Homo sapiens, UniProt P35408); experiment: EP4 receptor binding assay (3H-PGE2 SPA); details: EP4 receptor membranes, 20 nM 3H-PGE2, pH 6.0, 2 hrs room temperature
Method: Compounds of the invention were tested in an EP4 receptor binding assay of the following protocol.

EP2 receptor = EP2 receptor (Homo sapiens, UniProt P43116); experiment: EP2 receptor binding assay (3H-PGE2 SPA); details: EP2 receptor membranes, 20 nM 3H-PGE2, pH 6.0, 2 hrs room temperature
Chain of EP2 receptor (P43116 whole entry): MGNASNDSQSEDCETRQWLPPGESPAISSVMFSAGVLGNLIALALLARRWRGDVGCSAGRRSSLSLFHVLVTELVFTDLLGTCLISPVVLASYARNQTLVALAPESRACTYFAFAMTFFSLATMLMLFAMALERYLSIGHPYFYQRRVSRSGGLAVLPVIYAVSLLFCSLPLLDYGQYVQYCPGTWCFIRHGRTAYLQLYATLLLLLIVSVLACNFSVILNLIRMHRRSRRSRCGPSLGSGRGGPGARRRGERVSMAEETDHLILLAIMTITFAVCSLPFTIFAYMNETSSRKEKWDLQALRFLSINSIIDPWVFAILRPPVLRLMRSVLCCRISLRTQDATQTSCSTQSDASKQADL
Method: Compounds of the invention were tested in an EP2 receptor binding assay of the following protocol. As referred to herein, the term a “standard EP2 receptor binding assay” designates the following protocol.

[1] = molecular target: T1, HEK293-EBNA cells transfected with pCEP4-hEP2 receptors (Homo sapiens, UniProt P43116); experiment: EP2 cAMP assay; format: cell-based; details: total cAMP, 1 hour 37° C.
T1 construct: expressed in transfected cells; host or cells: HEK293-EBNA
T1 sequence (P43116 whole entry): as above
Method: (§1) Compounds of the invention were tested in a total cAMP assay as follows. HEK293-EBNA cells transfected with pCEP4-hEP2 receptors were seeded in 96 well opaque plate (Costar #3917) at 4×10^4 cells per well in 100 μl of culture medium (D-MEM/F12 supplemented with 10% FBS, […] L-glutamine, and 250 μg/ml of hygromycin; all from GibcoBRL) and incubated at 37° C. After overnight incubation, the medium was removed from each well and replaced with 45 μl of assay medium consisted of phenol red free D-MEM/F-12, 0.1% BSA (GibcoBRL) and 0.1 mM3-isobutyl-1-methyl-xanthine (Sigma). After 15 minutes of incubation at 37° C., 16-16-dimethyl PGE-2 or compounds at desired concentrations in 20 μl of assay medium were added to cells and further incubated at 37° C. for 1 hour. Total cAMP (intra- and extra-cellular) was measured by using a cAMP-screen ELISA System (Tropix, #CS1000).

[2] = molecular target: T2, HEK293-EBNA cells transfected with pCEP4-hEP4 receptors (Homo sapiens, UniProt P35408); experiment: EP4 cAMP assay; format: cell-based; details: total cAMP, 1 hour 37° C.
T2 construct: expressed in transfected cells; host or cells: HEK293-EBNA
T2 sequence (P35408 whole entry): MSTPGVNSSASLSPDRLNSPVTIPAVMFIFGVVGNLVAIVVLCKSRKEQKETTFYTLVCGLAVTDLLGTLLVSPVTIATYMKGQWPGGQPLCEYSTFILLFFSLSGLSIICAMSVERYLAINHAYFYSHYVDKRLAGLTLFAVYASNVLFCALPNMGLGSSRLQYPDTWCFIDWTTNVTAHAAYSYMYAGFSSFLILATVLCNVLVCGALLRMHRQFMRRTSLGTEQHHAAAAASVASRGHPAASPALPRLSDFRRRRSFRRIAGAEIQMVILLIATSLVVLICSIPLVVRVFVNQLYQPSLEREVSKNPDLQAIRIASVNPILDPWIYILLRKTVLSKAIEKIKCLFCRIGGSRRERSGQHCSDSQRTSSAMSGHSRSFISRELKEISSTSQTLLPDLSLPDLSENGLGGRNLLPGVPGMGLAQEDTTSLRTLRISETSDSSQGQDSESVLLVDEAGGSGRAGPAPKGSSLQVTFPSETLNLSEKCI
Method: as §1, with “pCEP4-hEP4” for “pCEP4-hEP2”, “compounds of the invention” for “compounds”
In Table II, the tested compound is identified both by the corresponding synthetic Example number above as well as structure of the tested compound.

Chain of EP4 receptor (P35408 whole entry): as above

| Structure (SMILES) | Ki (EP4 receptor) [nM] | Ki (EP2 receptor) [nM] | EC50 [1] [nM] | EC50 [2] [nM] |
| --- | --- | --- | --- | --- |
| O=C(O)c1ccc(CCN2C(=O)CCN2CCC(O)Cc2cccc(Cl)c2)cc1 (centres unmarked) [Example 29, 4-(2-{2-[4-(3-chlorophenyl)-3-hydroxybutyl]-5-oxopyrazolidin-1-yl}ethyl)benzoic acid] | 18 | 5690 | – | – |
| CC(C)CC(O)CCN1CCC(=O)N1CCc1ccc(C(=O)O)cc1 (centres unmarked) [Example 12, 4-{2-[2-(3-hydroxy-5-methylhexyl)-5-oxopyrazolidin-1-yl]ethyl}benzoic acid] | 2000 | 4410 | 15000 | 277 |
| CCCCC(O)CCCN1CCC(=O)N1CCc1ccc(C(=O)O)cc1 (centres unmarked) [Example 6, 4-{2-[2-(4-hydroxyoctyl)-5-oxopyrazolidin-1-yl]ethyl}benzoic acid] | – | 5660 | 1400 | – |
| CCCCCC(C)(O)CCCN1CCC(=O)N1CCc1ccc(C(=O)O)cc1 (centres unmarked) [Example 16, 4-{2-[2-(4-Hydroxy-4-methylnonyl)-5-oxopyrazolidin-1-yl]-ethyl}-benzoic acid] | – | 475 | 1600 | – |
| CCCC(C)(O)CCCN1CCC(=O)N1CCc1ccc(C(=O)O)cc1 (centres unmarked) [Example 10, 4-{2-[2-(4-hydroxy-4-methylheptyl)-5-oxopyrazolidin-1-yl]ethyl}benzoic acid] | – | 28900 | 5300 | – |
| O=C(O)c1ccc(CCN2C(=O)CCN2CCC(O)Cc2cccc(F)c2)cc1 (centres unmarked) [Example 25, 4-(2-{2-[4-(3-fluorophenyl)-3-hydroxybutyl]-5-oxopyrazolidin-1-yl}ethyl)benzoic acid] | 36 | 6290 | – | – |
| CC(C)CCC(C)(O)CCCN1CCC(=O)N1CCc1ccc(C(=O)O)cc1 (centres unmarked) [Example 11, 4-{2-[2-(4-hydroxy-4,7-dimethyloctyl)-5-oxopyrazolidin-1-yl]ethyl}benzoic acid] | – | 20200 | 10000 | – |
| CCCCCC(O)C#CCN1CCC(=O)N1CCc1ccc(C(=O)O)cc1 (centres unmarked) [Example 2, 4-{2-[2-(4-hydroxynon-2-ynyl)-5-oxopyrazolidin-1-yl]ethyl}benzoic acid] | – | > 50000 | > 50000 | – |
| CC(c1ccccc1)C(O)CCN1CCC(=O)N1CCc1ccc(C(=O)O)cc1 (stereo in doubt) [Example 30, 4-(2-{2-[(4R)-3-hydroxy-4-phenylpentyl]-5-oxopyrazolidin-1-yl}ethyl)benzoic acid] | 93 | 5130 | – | – |
| CCCC(C)C(O)CCN1CCC(=O)N1CCc1ccc(C(=O)O)cc1 (centres unmarked) [Example 13, 4-{2-[2-(3-hydroxy-4-methylheptyl)-5-oxopyrazolidin-1-yl]ethyl}benzoic acid] | 6000 | 2760 | 5000 | – |
| CC(C)CC(O)CCCN1CCC(=O)N1CCc1ccc(C(=O)O)cc1 (centres unmarked) [Example 7, 4-{2-[2-(4-hydroxy-6-methylheptyl)-5-oxopyrazolidin-1-yl]ethyl}benzoic acid] | – | 28600 | 9700 | – |
| O=C(O)c1ccc(CCN2C(=O)CCN2CCCC(O)C2(CC3CC3)CCC2)cc1 (centres unmarked) [Example 18, 4-[2-(2-{4-[1-(cyclopropylmethyl)cyclobutyl]-4-hydroxybutyl}-5-oxopyrazolidin-1-yl)ethyl]benzoic acid] | – | 610 | 578 | – |
| CCCCCC(O)/C=C\CN1CCC(=O)N1CCc1ccc(C(=O)O)cc1 (centres unmarked) [Example 4, 4-(2-{2-[(2Z)-4-hydroxynon-2-enyl]-5-oxopyrazolidin-1-yl}ethyl)benzoic acid] | – | 17200 | 2600 | – |

Further lines, results first:

| Ki (EP4 receptor) [nM] | Ki (EP2 receptor) [nM] | EC50 [1] [nM] | EC50 [2] [nM] | Structure (SMILES) |
| --- | --- | --- | --- | --- |
| 376 | – | – | – | O=C(O)c1ccc(CCN2C(=O)CCN2CCC(O)Cc2ccc3c(c2)OCO3)cc1 (centres unmarked) [Example 28, 4-(2-{2-[4-(1,3-benzodioxol-5-yl)-3-hydroxybutyl]-5-oxopyrazolidin-1-yl}ethyl)benzoic acid] |
| 250 | 2200 | 595 | 5 | CCCCCC(O)CCN1CCC(=O)N1CCc1ccc(C(=O)O)cc1 (centres unmarked) [Example 1, 4-[2-(2-(3-hydroxyoctyl)-5-oxopyrazolidin-1-yl)ethyl]benzoic acid] |
| 2000 | 2440 | 1300 | – | CCCCCC(O)CCCN1CCC(=O)N1CCc1ccc(C(=O)O)cc1 (centres unmarked) [Example 3, 4-{2-[2-(4-hydroxynonyl)-5-oxopyrazolidin-1-yl]ethyl}benzoic acid] |
| – | 495 | 461 | – | CCCCC(O)(CC)CCCN1CCC(=O)N1CCc1ccc(C(=O)O)cc1 (centres unmarked) [Example 9, 4-{2-[2-(4-ethyl-4-hydroxyoctyl)-5-oxopyrazolidin-1-yl]ethyl}benzoic acid] |
| 59 | 2830 | – | – | O=C(O)c1ccc(CCN2C(=O)CCN2CCC(O)Cc2cccc(OC(F)(F)F)c2)cc1 (centres unmarked) [Example 24, 4-[2-(2-{3-hydroxy-4-[3-(trifluoromethoxy)phenyl]butyl}-5-oxopyrazolidin-1-yl)ethyl]benzoic acid] |
| – | 3260 | 1500 | – | CCCCCC(O)CCCN1CCC(=O)N1CCc1ccc(C(=O)O)cc1 (stereo in doubt) [Example 15, 4-{2-[2-((4R)-hydroxynonyl)-5-oxopyrazolidin-1-yl]ethyl}benzoic acid] |
| 566 | 1860 | 566 | 10 | CCCCCC(O)CCCN1CCC(=O)N1CCc1ccc(C(=O)O)cc1 (stereo in doubt) [Example 14, 4-{2-[2-((4S)-hydroxynonyl)-5-oxopyrazolidin-1-yl]ethyl}benzoic acid] |
| – | 6650 | 17600 | – | O=C(O)c1ccc(CCN2C(=O)CCN2CCC(O)Cc2cccc(C(F)(F)F)c2)cc1 (centres unmarked) [Example 26, 4-[2-(2-{3-hydroxy-4-[3-(trifluoromethyl)phenyl]butyl}-5-oxopyrazolidin-1-yl)ethyl]benzoic acid] |
| – | 25900 | 12500 | – | CCCCCC(O)/C=C/CN1CCC(=O)N1CCc1ccc(C(=O)O)cc1 (centres unmarked) [Example 5, 4-(2-{2-[(2E)-4-hydroxynon-2-enyl]-5-oxopyrazolidin-1-yl}ethyl)benzoic acid] |
| 68 | 6200 | – | – | O=C(O)c1ccc(CCN2C(=O)CCN2CCC(O)Cc2ccccc2)cc1 (centres unmarked) [Example 21, 4-{2-[2-(3-hydroxy-4-phenylbutyl)-5-oxopyrazolidin-1-yl]ethyl}benzoic acid] |
| – | 5160 | 2100 | – | CCCC(C)C(O)CCCN1CCC(=O)N1CCc1ccc(C(=O)O)cc1 (centres unmarked) [Example 8, 4-{2-[2-(4-hydroxy-5-methyloctyl)-5-oxopyrazolidin-1-yl]ethyl}benzoic acid] |
| 95 | 7090 | – | – | CC(c1ccccc1)C(O)CCN1CCC(=O)N1CCc1ccc(C(=O)O)cc1 (stereo in doubt) [Example 27, 4-(2-{2-[(4S)-3-hydroxy-4-phenylpentyl]-5-oxopyrazolidin-1-yl}ethyl)benzoic acid] |
| – | 750 | 393 | – | CCC1(C(O)CCCN2CCC(=O)N2CCc2ccc(C(=O)O)cc2)CCC1 (centres unmarked) [Example 19, 4-(2-{2-[4-(1-ethylcyclobutyl)-4-hydroxybutyl}-5-oxopyrazolidin-1-yl}ethyl)benzoic acid] |
